These results are taken from patent publication US7439372B2, “Therapeutic compounds” (Allergan, Inc., priority 2006, dated 2008).

Bounds are passed on as bounds.

One series in a line: Ocular hyperemia in dog. The series is classed as in vivo. The following applies: Conc. 0.1% (g/100 mL).
Series [1] in a line: Intraocular pressure in dog. The series is classed as in vivo. The following applies: Conc. 0.1% (g/100 mL). The text has this: U.S. patent application Ser. No. 11/553,143, filed on Oct. 26, 2006, incorporated by reference herein, describes the methods used to obtain the in vitro data in the table below.
A short description of series [2]: Intraocular pressure in monkey. The series is classed as in vivo. The following applies: Conc. 0.1% (g/100 mL).
The next series deals with T1, hEP4/Gqs5 (Homo sapiens, UniProt P35408).
T1 construct: expressed in transfected cells; host or cells: HEK-293(EBNA)
T1 sequence (P35408 whole entry): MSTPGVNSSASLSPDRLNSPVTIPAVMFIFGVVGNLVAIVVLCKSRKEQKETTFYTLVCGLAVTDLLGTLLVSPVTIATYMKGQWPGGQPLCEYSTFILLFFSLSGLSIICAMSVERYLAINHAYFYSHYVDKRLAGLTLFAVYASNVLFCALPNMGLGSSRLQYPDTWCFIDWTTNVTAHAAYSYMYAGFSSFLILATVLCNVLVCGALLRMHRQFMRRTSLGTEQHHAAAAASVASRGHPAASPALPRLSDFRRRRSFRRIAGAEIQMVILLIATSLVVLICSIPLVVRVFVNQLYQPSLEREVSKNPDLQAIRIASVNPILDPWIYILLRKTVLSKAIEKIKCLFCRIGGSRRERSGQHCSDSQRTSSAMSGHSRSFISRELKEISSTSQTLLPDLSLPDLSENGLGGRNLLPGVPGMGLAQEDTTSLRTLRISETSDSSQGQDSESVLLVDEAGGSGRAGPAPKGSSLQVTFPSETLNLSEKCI
The series can be described thus: FLIPR calcium signal, HEK-293(EBNA) cells expressing hEP4/Gqs5. The series is classed as cell-based. The protocol: HEK-293(EBNA) cells, stably expressing one type or subtype of recombinant human prostaglandin receptors (prostaglandin receptors expressed: hDP/Gqs5; hEP1; hEP2/Gqs5; hEP3A/Gqi5; hEP4/Gqs5; hFP; hIP; hTP), were cultured in 100 mm culture dishes in high-glucose DMEM medium containing 10% fetal bovine serum, 2 mM l-glutamine, 250 µg/ml geneticin (G418) and 200 μg/ml hygromycin B as selection markers, and 100 units/ml penicillin G, 100 µg/ml streptomycin and 0.25 μg/ml amphotericin B.
Cells were seeded at a density of 5×10^4 cells per well in Biocoat® Poly-D-lysine-coated black-wall, clear-bottom 96-well plates (Becton-Dickinson) and allowed to attach overnight in an incubator at 37° C. Cells were then washed two times with HBSS-HEPES buffer (Hanks Balanced Salt Solution without bicarbonate and phenol red, 20 mM HEPES, pH 7.4) using a Denley Cellwash plate washer (Labsystems). After 45 minutes of dye-loading in the dark, using the calcium-sensitive dye Fluo-4 […] at a final concentration of 2 μM, plates were washed four times with HBSS-HEPES buffer to remove excess dye leaving 100 μl in each well. Plates were re-equilibrated to 37° C. for a few minutes.
Cells were excited with an Argon laser at 488 nm, and emission was measured through a 510-570 nm bandwidth emission filter (FLIPR™, Molecular Devices, Sunnyvale, Calif.). Drug solution was added in a 50 µl volume to each well to give the desired final concentration. The peak increase in fluorescence intensity was recorded for each well. On each plate, four wells each served as negative (HBSS-HEPES buffer) and positive controls (standard agonists: BW245C (hDP); PGE2 (hEP1; hEP2/Gqs5; hEP3A/Gqi5; hEP4/Gqs5); PGF2α (hFP); carbacyclin (hIP); U-46619 (hTP), depending on receptor). The peak fluorescence change in each drug-containing well was then expressed relative to the controls.
Compounds were tested in a high-throughput (HTS) or concentration-response (CoRe) format. In the HTS format, forty-four compounds per plate were examined in duplicates at a concentration of 10^−5 M. To generate concentration-response curves, four compounds per plate were tested in duplicates in a concentration range between 10^−5 and 10^−11 M. The duplicate values were averaged. In either, HTS or CoRe format each compound was tested on at least 3 separate plates using cells from different passages to give an n≧3.

A further series addresses EP2 (Homo sapiens, UniProt P43116). The series can be described thus: Competition binding, [3H]PGE2, HEK 293 cells stably expressing human EP2 receptors. The arrangement: expressed in transfected cells; host or cells: HEK 293. The note with it: [3H]PGE2 competition. As for the experimental part:
Competition binding experiments were performed in a medium containing Hank's balanced salt solution, Hepes 20 mM, pH 7.3, membranes (˜60 μg protein) or 2×10^5 cells from HEK 293 cells stably expressing human EP2 receptors, [^3H]PGE2 (10 nM) and various concentrations of test compounds in a total volume of 300 μl. Reaction mixtures were incubated at 23° C. for 60 min, and were filtered over Whatman GF/B filters under vacuum. Filters were washed three times with 5 ml ice-cold buffer containing 50 mM Tris/HCl (pH 7.3). Non-specific binding was estimated in the presence of excess unlabeled PGE2 (10 μM). Binding data fitted to the binding model for a single class of binding sites, using nonlinear regression analysis. IC50 values thus obtained were converted to Ki using the equation of Ki=(IC50/(1+[L]/KD) where [L] represents PGE2 concentration (10 nM) and KD the dissociation constant for [3H]PGE2 at human EP2 receptors (40 nM).
(§1) HEK-293 cells stably expressing the human or feline FP receptor, or EP1, EP2, or EP4 receptors were washed with TME buffer, scraped from the bottom of the flasks, and homogenized for 30 sec using a Brinkman PT 10/35 polytron. TME buffer was added to achieve a final 40 ml volume in the centrifuge tubes (the composition of TME is 100 mM TRIS base, 20 mM MgCl2, […]; 10N HCl is added to achieve a pH of 7.4).
(§2) The cell homogenate was centrifuged at 19000 r.p.m. for 20 min at 4° C. using a Beckman Ti-60 rotor. The resultant pellet was resuspended in TME buffer to give a final 1 mg/ml protein concentration, as determined by Biorad assay. Radioligand binding competition assays vs. [^3H-]17-phenyl PGF2α (5 nM) were performed in a 100 μl volume for 60 min. Binding reactions were started by adding plasma membrane fraction. The reaction was terminated by the addition of 4 ml ice-cold TRIS-HCl buffer and rapid filtration through glass fiber GF/B filters using a Brandel cell harvester. The filters were washed 3 times with ice-cold buffer and oven dried for one hour.
(§3) [^3H-]PGE2 (specific activity 180 Ci mmol) was used as the radioligand for EP receptors. [^3H]17-phenyl PGF2α was employed for FP receptor binding studies. Binding studies employing EP1, EP2, EP4 and FP receptors were performed in duplicate in at least three separate experiments. A 200 μl assay volume was used. Incubations were for 60 min at 25° C. and were terminated by the addition of 4 ml of ice-cold 50 mM TRIS-HCl, followed by rapid filtration through Whatman GF/B filters and three additional 4 ml washes in a cell harvester (Brandel). Competition studies were performed using a final concentration of 5 nM [^3H]-PGE2, or 5 nM [^3H] 17-phenyl PGF2α and non-specific binding determined with 10^−5M of unlabeled PGE2, or 17-phenyl PGF2α, according to receptor subtype studied.

The target of the next series is T2, EP4 receptors (Homo sapiens, UniProt P35408).
T2 construct: expressed in transfected cells; host or cells: HEK-293
T2 sequence (P35408 whole entry): as above
Put plainly: Radioligand binding, [3H]PGE2, HEK-293 cells stably expressing EP4 receptors. The note with it: [3H]PGE2 competition. The protocol:
as §1, §2, §3

A word on the Ki: it is the dissociation constant of the complex between target and ligand, obtained from inhibition or displacement.

Chain of EP2 (P43116 whole entry): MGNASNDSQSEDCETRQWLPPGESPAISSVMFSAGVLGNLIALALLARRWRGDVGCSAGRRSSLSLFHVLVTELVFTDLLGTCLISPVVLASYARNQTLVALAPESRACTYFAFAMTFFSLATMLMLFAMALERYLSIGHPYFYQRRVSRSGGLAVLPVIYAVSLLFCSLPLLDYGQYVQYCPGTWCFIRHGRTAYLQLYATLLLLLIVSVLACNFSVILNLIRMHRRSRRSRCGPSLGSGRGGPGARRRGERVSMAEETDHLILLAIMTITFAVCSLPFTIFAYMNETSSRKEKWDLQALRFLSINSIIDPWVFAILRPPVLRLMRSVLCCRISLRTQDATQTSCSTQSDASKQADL

`CCCCCC(O)c1ccc([C@H]2C(=O)CC[C@@H]2CCCc2ccc(C(=O)OC(C)C)s2)cc1` (some centres unmarked) [compound 1]: the “DOG Max. hyperemia” value in “Ocular hyperemia in dog” stood at 1.6. Also, the “DOG Max. ΔIOP (%)” value in series [1] is on record as −37%.
Turning to `CCCCCC(O)c1ccc([C@@H]2[C@@H](CCCc3ccc(C(=O)OC(C)C)s3)CCC2(Cl)Cl)cc1` (some centres unmarked) [compound 2], the “DOG Max. hyperemia” value in the series “Ocular hyperemia in dog” turned out to be 0.4. Also, the “DOG Max. ΔIOP (%)” value in series [1] is given as −6%. The “MONKEY Max. ΔIOP (%)” value in series [2] is −21%.
Consider `CCCCCC(O)c1ccc([C@H]2C(=O)C=C[C@@H]2C/C=C\CCCC(=O)O)cc1` (some centres unmarked) [compound 4], for which the “Ca2+ Signal-EC50(nM) EP4” value at hEP4/Gqs5 is “notactive”. For the same compound, the inhibition constant (Ki) at EP2 is above 10000 nM; on EP4 receptors, 4330 nM.
